Test results as given in patent publication US8247377B2, “Non-steroidal glucocorticoid inhibitors and their use in treating inflammation, allergy and auto-immune conditions” (Glaxo Group Limited, priority 2006, dated 2012).

What was measured:
glucocorticoid receptor = target: T1, glucocorticoid receptor (Homo sapiens, UniProt P04150); experiment: Glucocorticoid receptor binding assay (fluorescence polarisation); details: competition with Alexa 555 fluorescently-labelled dexamethasone derivative, full length glucocorticoid receptor; read-out: glucocorticoid binding pIC50 (converted)
T1 construct: a partially purified full length glucocorticoid receptor
T1 sequence (P04150 1-777): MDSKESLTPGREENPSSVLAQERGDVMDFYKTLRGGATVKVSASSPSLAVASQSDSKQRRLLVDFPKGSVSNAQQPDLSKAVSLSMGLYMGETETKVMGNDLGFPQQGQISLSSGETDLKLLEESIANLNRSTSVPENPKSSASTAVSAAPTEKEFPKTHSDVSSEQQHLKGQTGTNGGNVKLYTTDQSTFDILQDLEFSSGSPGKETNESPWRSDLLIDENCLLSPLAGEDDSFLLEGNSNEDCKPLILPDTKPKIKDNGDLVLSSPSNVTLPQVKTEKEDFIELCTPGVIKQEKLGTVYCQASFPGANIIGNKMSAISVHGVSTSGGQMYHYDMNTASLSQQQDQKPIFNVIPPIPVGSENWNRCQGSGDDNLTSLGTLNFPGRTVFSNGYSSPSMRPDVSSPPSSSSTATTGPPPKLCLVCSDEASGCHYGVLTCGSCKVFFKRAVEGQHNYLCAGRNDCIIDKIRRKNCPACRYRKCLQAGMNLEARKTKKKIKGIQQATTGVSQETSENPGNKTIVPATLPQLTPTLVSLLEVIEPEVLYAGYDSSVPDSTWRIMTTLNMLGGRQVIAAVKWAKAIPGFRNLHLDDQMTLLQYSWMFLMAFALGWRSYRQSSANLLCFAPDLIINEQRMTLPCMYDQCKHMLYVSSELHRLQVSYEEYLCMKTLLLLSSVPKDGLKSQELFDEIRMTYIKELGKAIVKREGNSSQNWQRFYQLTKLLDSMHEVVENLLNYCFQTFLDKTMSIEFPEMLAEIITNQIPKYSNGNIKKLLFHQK
In short: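 Compounds in DMSO incubated with fluorescent dexamethasone and partially purified full-length GR plus stabilising buffer components, 2 hrs at room temperature in the dark. Displacement read as decrease in fluorescence polarisation; pIC50 estimated from dose-response curves.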

MMTV promoter = experiment: MMTV agonist assay in A549 MMTV cells; format: cell-based; details: Homo sapiens, A549, 6 h, >85% = full agonist, >20% and <85% = partial or efficacy selective agonist, read-out: average maximum asymptote in the MMTV agonist assay
In short: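 A549 cells stably carrying an MMTV promoter-driven renilla luciferase reporter were exposed to compound for 6 h at 37 °C in DMEM with 10% FCS and 25 mM HEPES. Luminescence read after renilla substrate addition; pEC50 and maximum asymptote estimated from dose-response curves.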

NFκB = NFκB agonist assay in A549 SPAP cells; format: cell-based; details: Homo sapiens; for Emax: A549, A549 SPAP cells, >85% = full agonist, ≧20% = partial or full agonist, read-out: average maximum asymptote in the NFkB assay; for IC50: A549 SPAP cells, TNFα 3.2 ng/ml, read-out: pIC50 for the NFkB assay (converted);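 for average maximum asymptote in the NFkB assay: maximum inhibition of the TNFα-induced NFκB-driven signal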
In short: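 A549 cells stably carrying an ELAM/NFκB-driven SPAP reporter were pre-incubated 1 h at 37° C with compound, then stimulated with TNFα (3.2 ng/ml final) for 15 h. SPAP activity read colorimetrically with pNPP at 405 nm after ~1 h; pIC50 estimated from dose-response curves.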

Structure (SMILES)	IC50 (glucocorticoid receptor)	Emax (MMTV promoter)	Emax (NFκB)	IC50 (NFκB)
Nc1c(C(=O)NCC(O)(CNC(=O)c2c(Cl)cccc2Br)C(F)(F)F)cnn1-c1ccc(F)cc1 (racemic) [Example 12 (racemic), 5-Amino-N-[2-({[(2-bromo-6-chlorophenyl)carbonyl]amino}methyl)-3,3,3-trifluoro-2-hydroxypropyl]-1-(4-fluorophenyl)-1H-pyrazole-4-carboxamide]	≤ 316 nM	20 to 85%	≥ 20%	< 1000 nM
CCN(CC(O)(CNC(=O)c1cnn(-c2ccc(F)cc2)c1N)C(F)(F)F)C(=O)c1c(F)cccc1F (racemic) [Example 5 (racemic), 5-Amino-N-(2-{[[(2,6-difluorophenyl)carbonyl](ethyl)amino]methyl}-3,3,3-trifluoro-2-hydroxypropyl)-1-(4-fluorophenyl)-1H-pyrazole-4-carboxamide]	≤ 316 nM	> 85%	> 85%	< 1000 nM
CN(CC(O)(CNC(=O)c1cnn(-c2ccc(F)cc2)c1N)C(F)(F)F)C(=O)c1c(F)cccc1F (racemic) [Example 8 (racemic), 5-Amino-N-(2-{[[(2,6-difluorophenyl)carbonyl](methyl)amino]methyl}-3,3,3-trifluoro-2-hydroxypropyl)-1-(4-fluorophenyl)-1H-pyrazole-4-carboxamide]	≤ 316 nM	> 85%	> 85%	< 1000 nM
CCN(CC(O)(CNC(=O)c1cnn(-c2ccc(F)cc2)c1N)C(F)(F)F)C(=O)c1c(OC(F)F)cccc1OC(F)F (racemic) [Example 26 (racemic), 5-amino-N-(2-{[({2,6-bis[(difluoromethyl)oxy]phenyl}carbonyl)(ethyl)amino]methyl}-3,3,3-trifluoro-2-hydroxypropyl)-1-(4-fluorophenyl)-1H-pyrazole-4-carboxamide]	≤ 316 nM	> 85%	> 85%	< 1000 nM
CCN(CC(O)(CNC(=O)c1cnn(-c2cccc(Cl)c2)c1N)C(F)(F)F)C(=O)c1c(F)cccc1F (racemic) [Example 41 (racemic), 5-amino-1-(3-chlorophenyl)-N-(2-{[[(2,6-difluorophenyl)carbonyl](ethyl)amino]methyl}-3,3,3-trifluoro-2-hydroxypropyl)-1H-pyrazole-4-carboxamide]	≤ 316 nM	> 85%	> 85%	< 1000 nM
Nc1c(C(=O)NCC(O)(CNC(=O)c2c(Br)cccc2C(F)(F)F)C(F)(F)F)cnn1-c1ccc(F)cc1 (single isomer, unassigned) [Example 45 Enantiomer 1, 5-Amino-N-{2-[({[2-bromo-6-(trifluoromethyl)phenyl]carbonyl}amino)methyl]-3,3,3-trifluoro-2-hydroxypropyl}-1-(4-fluorophenyl)-1H-pyrazole-4-carboxamide]	≤ 316 nM	20 to 85%	≥ 20%	< 1000 nM
Nc1c(C(=O)NCC(O)(CNC(=O)c2c(F)cccc2OC(F)F)C(F)(F)F)cnn1-c1ccc(F)cc1 (single isomer, unassigned) [Example 48 Enantiomer 1, 5-Amino-N-(2-{[({2-[(difluoromethyl)oxy]-6-fluorophenyl}carbonyl)amino]methyl}-3,3,3-trifluoro-2-hydroxypropyl)-1-(4-fluorophenyl)-1H-pyrazole-4-carboxamide]	≤ 316 nM	20 to 85%	≥ 20%	< 1000 nM
Nc1c(C(=O)NCC(O)(CNC(=O)c2c(Cl)cccc2Br)C(F)(F)F)cnn1-c1ccc(F)cc1 (single isomer, unassigned) [Example 12 Enantiomer 1, 5-Amino-N-[2-({[(2-bromo-6-chlorophenyl)carbonyl]amino}methyl)-3,3,3-trifluoro-2-hydroxypropyl]-1-(4-fluorophenyl)-1H-pyrazole-4-carboxamide]	≤ 316 nM	20 to 85%	≥ 20%	< 1000 nM
CCN(CC(O)(CNC(=O)c1cnn(-c2ccc(F)cc2F)c1N)C(F)(F)F)C(=O)c1c(F)cccc1F (racemic) [Example 34 (racemic), 5-amino-1-(2,4-difluorophenyl)-N-(2-{[[(2,6-difluorophenyl)carbonyl](ethyl)amino]methyl}-3,3,3-trifluoro-2-hydroxypropyl)-1H-pyrazole-4-carboxamide]	≤ 316 nM	> 85%	> 85%	< 1000 nM
Nc1c(C(=O)NCC(O)(CNC(=O)c2c(Cl)cccc2Cl)C(F)(F)F)cnn1-c1ccc(F)cc1 (racemic) [Example 3 (racemic), 5-Amino-N-[2-({[(2,6-dichlorophenyl)carbonyl]amino}methyl)-3,3,3-trifluoro-2-hydroxypropyl]-1-(4-fluorophenyl)-1H-pyrazole-4-carboxamide]	≤ 316 nM	20 to 85%	≥ 20%	< 1000 nM
CN(CC(O)(CNC(=O)c1cnn(-c2ccc(F)cc2)c1N)C(F)(F)F)C(=O)c1c(F)cccc1C(F)(F)F (racemic) [Example 21 (racemic), 5-amino-1-(4-fluorophenyl)-N-(3,3,3-trifluoro-2-{[{[2-fluoro-6-(trifluoromethyl)phenyl]carbonyl}(methyl)amino]methyl}-2-hydroxypropyl)-1H-pyrazole-4-carboxamide]	≤ 316 nM	> 85%	> 85%	< 1000 nM
Nc1c(C(=O)NCC(O)(CN(CCF)C(=O)c2c(F)cccc2C(F)(F)F)C(F)(F)F)cnn1-c1ccc(F)cc1 (racemic) [Example 18 (racemic), 5-amino-1-(4-fluorophenyl)-N-{3,3,3-trifluoro-2-[((2-fluoroethyl){[2-fluoro-6-(trifluoromethyl)phenyl]carbonyl}amino)methyl]-2-hydroxypropyl}-1H-pyrazole-4-carboxamide]	≤ 316 nM	> 85%	> 85%	< 1000 nM
CCN(CC(O)(CNC(=O)c1cnn(-c2ccc(F)cc2)c1N)C(F)(F)F)C(=O)c1c(Cl)cccc1Br (racemic) [Example 24 (racemic), 5-amino-N-(2-{[[(2-bromo-6-chlorophenyl)carbonyl](ethyl)amino]methyl}-3,3,3-trifluoro-2-hydroxypropyl)-1-(4-fluorophenyl)-1H-pyrazole-4-carboxamide]	≤ 316 nM	> 85%	> 85%	< 1000 nM
Nc1c(C(=O)NCC(O)(CN(CCF)C(=O)c2c(F)cccc2F)C(F)(F)F)cnn1-c1ccc(F)cc1 (racemic) [Example 17 (racemic), 5-amino-N-(2-{[[(2,6-difluorophenyl)carbonyl](2-fluoroethyl)amino]methyl}-3,3,3-trifluoro-2-hydroxypropyl)-1-(4-fluorophenyl)-1H-pyrazole-4-carboxamide]	≤ 316 nM	> 85%	> 85%	< 1000 nM
CCN(CC(O)(CNC(=O)c1cnn(-c2ccc(F)c(F)c2)c1N)C(F)(F)F)C(=O)c1c(F)cccc1F (racemic) [Example 33 (racemic), 5-amino-1-(3,4-difluorophenyl)-N-(2-{[[(2,6-difluorophenyl)carbonyl](ethyl)amino]methyl}-3,3,3-trifluoro-2-hydroxypropyl)-1H-pyrazole-4-carboxamide]	≤ 316 nM	> 85%	> 85%	< 1000 nM
CN(CC(O)(CNC(=O)c1cnn(-c2ccc(F)cc2)c1N)C(F)(F)F)C(=O)c1c(Cl)cccc1Cl (racemic) [Example 1 (racemic), 5-Amino-N-(2-{[[(2,6-dichlorophenyl)carbonyl](methyl)amino]methyl}-3,3,3-trifluoro-2-hydroxypropyl)-1-(4-fluorophenyl)-1H-pyrazole-4-carboxamide]	≤ 316 nM	> 85%	> 85%	< 1000 nM
